{"source": "PubChem BioAssay AID602338", "about": "(NMMLSC, 2012)", "note": "Calls of active or inactive are those of the source. The rule behind the calls is not given here.", "data": [{"target": "Botulinum neurotoxin type F (Clostridium botulinum) (UniProt P30996)", "experiment": "Botulinum neurotoxin type F light chain protease inhibitors, multiplex microsphere dose response (AID 602338)", "conditions": "multiplex microsphere protease cleavage assay, flow cytometry", "values": [{"smiles": "COc1ccc(OC)c(-c2nc3cc4ccccc4cc3nc2-c2ccccc2)c1", "EC50": "> 20 µM (inactive)"}, {"smiles": "O=C(Nc1ccc2nc(-c3cccs3)c(-c3cccs3)nc2c1)NC1CC1", "EC50": "> 20 µM (inactive)"}, {"smiles": "COc1ccc(C2CC(c3cccs3)=NN2c2nc(C)c(C(C)=O)s2)cc1OC", "note": "(centres undefined)", "EC50": "> 20 µM (inactive)"}, {"smiles": "Cn1c(=O)c(/C=C/c2ccccc2)nc2ccccc21", "EC50": "> 20 µM (inactive)"}, {"smiles": "CCS(=O)(=O)N1N=C(c2cccc(NS(C)(=O)=O)c2)CC1c1ccccc1", "note": "(centres undefined)", "EC50": "> 20 µM (inactive)"}, {"smiles": "O=c1c(/C=C(\\O)c2ccccc2)nc2ccccc2n1-c1ccccc1", "EC50": "> 20 µM (inactive)"}, {"smiles": "c1ccc(-c2cn3nc(-c4ccccc4)c(-c4ccccc4)nc3n2)cc1", "EC50": "> 20 µM (inactive)"}, {"smiles": "CCOc1ccc2nc3cc(NCc4ccc(OC)cc4)ccc3c(N)c2c1", "EC50": "> 20 µM (inactive)"}, {"smiles": "CCSc1nnc(-c2sc3nnc(-c4ccccc4)c(-c4ccccc4)c3c2N)o1", "EC50": "> 20 µM (inactive)"}, {"smiles": "O=C(Nc1ccc2nc(-c3cccs3)c(-c3cccs3)nc2c1)N1CCOCC1", "EC50": "> 20 µM (inactive)"}, {"smiles": "CS(=O)(=O)N1N=C(c2ccccc2)CC1c1ccc2c(c1)OCO2", "note": "(centres undefined)", "EC50": "> 20 µM (inactive)"}, {"smiles": "Oc1[nH]c(N=C2N=c3ccccc3=N2)c2ccccc12", "EC50": "> 20 µM (inactive)"}, {"smiles": "CSc1nnc2c(n1)c(C)nn2-c1cccc(C)c1", "EC50": "> 20 µM (inactive)"}, {"smiles": "O=[N+]([O-])c1cccc(-c2cn3nc(-c4ccccc4)c(-c4ccccc4)nc3n2)c1", "EC50": "> 20 µM (inactive)"}]}]}
